Consider 13 compounds from patent US20220289746A1, “PYRROLIDINE DERIVATIVES” (Hoffmann-La Roche Inc., priority 2019, published 2022).

Data set [1] has as its target T1, human M4 receptor (Homo sapiens, UniProt P08173).
T1 sequence (P08173 1-479): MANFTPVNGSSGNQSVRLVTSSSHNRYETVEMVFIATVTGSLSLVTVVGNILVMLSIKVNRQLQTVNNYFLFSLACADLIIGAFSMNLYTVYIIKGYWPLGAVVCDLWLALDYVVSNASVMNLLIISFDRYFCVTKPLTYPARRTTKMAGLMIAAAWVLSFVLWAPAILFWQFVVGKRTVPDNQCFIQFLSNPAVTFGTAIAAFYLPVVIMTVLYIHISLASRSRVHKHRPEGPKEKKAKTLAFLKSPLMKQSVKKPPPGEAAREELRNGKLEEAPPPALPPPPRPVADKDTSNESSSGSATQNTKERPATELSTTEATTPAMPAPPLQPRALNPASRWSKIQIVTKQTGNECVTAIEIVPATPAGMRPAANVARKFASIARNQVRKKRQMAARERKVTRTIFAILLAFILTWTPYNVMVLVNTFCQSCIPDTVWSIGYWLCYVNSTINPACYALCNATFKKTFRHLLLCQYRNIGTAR
The data set can be described thus: cAMP assay for M4 positive allosteric modulators (M4 PAM cAMP assay). In kind it is cell-based. Set-up: expressed in transfected cells; host or cells: CHO-K1. To be noted: CHO-K1 cells expressing human M4, forskolin 7.5 μM + acetylcholine EC20 (0.2 nM). The method in brief: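 CHO-K1 cells stably expressing untagged human M4 pre-treated 15 min at 37 °C with compound plus IBMX, then stimulated 30 min with 7.5 μM forskolin and EC20 acetylcholine (0.2 nM). cAMP read by TR-FRET; normalised to 2 nM acetylcholine plus forskolin as 100%, sigmoidal fit giving EC50 and % efficacy.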
In general terms: Cyclic AMP is a second messenger, typically raised through Gs and lowered through Gi signalling.

Data set [2] has as its target T1, human M4 receptor. The data set can be described thus: Calcium flux assay using fluorescent imaging (M4 PAM FLIPR assay). Type of data set: cell-based. Set-up: expressed in transfected cells; host or cells: CHO (monoclonal line, clone 2). Conditions: CHO cells expressing human M4+Gqi5, acetylcholine EC20. The gist of the method: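 CHO cells stably expressing human M4 with Gqi5 were loaded with 2 μM Fluo-4-AM for about 90 min at 37 °C, in HBSS/20 mM HEPES pH 7.3/2.5 mM probenecid. For PAM mode, compound was pre-incubated 15 min before an EC20 acetylcholine challenge; calcium read on FDSS 7000. EC50 and efficacy are relative to 3 μM acetylcholine (EC100), four-parameter fit.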
Background: Calcium flux is commonly read through the fluorescence of an indicator in the cells.

Another data set concerns liver cells. The experiment in a line: Determination of the in vitro clearance in liver cells. Type of data set: in vitro ADME. To be noted: for clearance values reduced compared to clearance values of examples P1, P2 and P55: in vitro clearance, relative to reference compounds; for Clearance: in vitro intrinsic clearance, liver cells (hepatocyte cultures), 37° C. The procedure:
Determination of the In Vitro Clearance
Incubations of a test compound at different concentrations were performed in 96 well plates containing liver cells (5% CO2 atmosphere and 37° C.). At defined time points, either cell medium was taken or the whole well was quenched with acetonitrile containing an internal standard. Samples are then cooled and centrifuged before analysis by LC-MS/MS. Different enzyme markers (Cyp3A4 substrates Midazolam, Quinidin, CYP2B6 Buproprion, CYP2D6 Dextromethorphan, CYP2C9 Tolbutamide, FMO substrate Benzydamine, UGT substrate Raloxifene) for assessing the metabolic activity of the hepatocyte cultures were used as quality control.
Log peak area ratios (test compound peak area/internal standard peak area) or concentrations were plotted against incubation time and a linear fit made to the data with emphasis upon the initial rate of compound disappearance. The slope of the fit is then used to calculate the intrinsic clearance:
Additionally, the intrinsic clearance can also be deduced by the measured rates of metabolite formation.

A further data set addresses T2, M4 receptor (Mus musculus, UniProt P32211).
T2 construct: host or cells: living mice (behavioural test)
T2 sequence (P32211 1-479): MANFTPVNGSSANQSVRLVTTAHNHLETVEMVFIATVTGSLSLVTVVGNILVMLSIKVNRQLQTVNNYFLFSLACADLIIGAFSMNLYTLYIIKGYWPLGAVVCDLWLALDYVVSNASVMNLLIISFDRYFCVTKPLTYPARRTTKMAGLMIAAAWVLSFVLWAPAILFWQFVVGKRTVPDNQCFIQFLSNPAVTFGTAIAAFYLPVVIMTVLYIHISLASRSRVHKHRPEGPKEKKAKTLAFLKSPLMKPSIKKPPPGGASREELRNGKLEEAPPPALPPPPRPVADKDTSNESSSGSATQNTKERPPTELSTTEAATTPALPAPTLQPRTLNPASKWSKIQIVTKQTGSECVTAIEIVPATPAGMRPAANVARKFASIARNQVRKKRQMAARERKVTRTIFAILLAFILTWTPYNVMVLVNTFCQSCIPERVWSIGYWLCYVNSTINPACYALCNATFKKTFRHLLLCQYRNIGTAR
To be noted: rodent in vivo; effects absent in M4 knockout mice; cited from earlier work.

The test system of another data set is muscarinic receptors. Conditions: 345 Alzheimer patients; cited from earlier work.

Consider `Cc1nc2c(c(C)c1Cl)CN(C(=O)[C@@H]1CCN(c3ccncn3)C1)C2` [Example 2, (3-chloro-2,4-dimethyl-5,7-dihydropyrrolo[3,4-b]pyridin-6-yl)-[(3R)-1-pyrimidin-4-ylpyrrolidin-3-yl]methanone], for which, at human M4 receptor [1] (Table 1), the EC50 is 79 nM. On human M4 receptor [2] (Table 1), the EC50 turned out to be 61 nM. In the data set on liver cells, the “clearance values reduced compared to clearance values of examples P1, P2 and P55” value (“clearance values reduced” for short) is given as 50%; the Clearance came out at 3.5 μl/min/1 * 10^6 cells.
With `Cc1nnc2sc(C(=O)NCc3ccc(S(=O)(=O)C(F)(F)F)cc3)c(N)c2c1C` [VU0467154], on M4 receptor, the “effect on associative learning impairments induced by MK-801” value is recorded as “ameliorated the associative learning impairments”.
Turning to `Cc1nc2c(c(C)c1Cl)CN(C(=O)CC1CN(c3cccnc3)C1)C2` [Example P1, reference compound], the figures for the EC50 on human M4 receptor [1] (Table 2) and on human M4 receptor [2] (Table 2) were 55 nM and 947 nM, respectively. In addition, the Clearance with liver cells is 20 μl/min/1 * 10^6 cells.
On to `CCCCCCOc1nsnc1C1=CCCN(C)C1` [Xanomeline], for which the “effect on cognition and psychiatric symptoms” value in the data set on muscarinic receptors was “improve cognition and psychiatric symptoms”.
On to `Cc1nc2c(c(C)c1Cl)CN(C(=O)[C@@H]1CCN(c3cccnc3)C1)C2` [Example 1, (3-chloro-2,4-dimethyl-5,7-dihydropyrrolo[3,4-b]pyridin-6-yl)-[(3R)-1-(3-pyridyl)pyrrolidin-3-yl]methanone], for which the EC50 at human M4 receptor [1] (Table 1) amounted to 155 nM. The EC50 on human M4 receptor [2] (Table 1) worked out at 387 nM. Moreover, in the data set with liver cells, the “clearance values reduced” value was found to be 50%; the Clearance turned out to be 9.3 μl/min/1 * 10^6 cells.
Take `Cc1nc2c(c(C)c1Cl)CN(C(=O)CC1CN(c3ccncn3)C1)C2` [Example P2, reference compound]: the EC50 at human M4 receptor [1] (Table 2) was 53 nM; at human M4 receptor [2] (Table 2), 35 nM. This compound also returned a Clearance in the data set on liver cells of 7.9 μl/min/1 * 10^6 cells.
For `COCc1nc2c(c(C)c1Cl)CN(C(=O)[C@@H]1CCN(c3ccncn3)C1)C2` [Example 55, [3-chloro-2-(methoxymethyl)-4-methyl-5,7-dihydropyrrolo[3,4-b]pyridin-6-yl]-[(3R)-1-pyrimidin-4-ylpyrrolidin-3-yl]methanone], the EC50 on human M4 receptor [1] (Table 1) came to 192 nM. For the same compound, on human M4 receptor [2] (Table 1), the EC50 stood at 42 nM. Also, in the data set on liver cells, the “clearance values reduced” value amounted to 50%; the Clearance worked out at 2.1 μl/min/1 * 10^6 cells.
As to `Cc1nc2c(c(C)c1Cl)CN(C(=O)[C@@H]1CCN(c3cncc(C4CC4)c3)C1)C2` [Example 16, (3-chloro-2,4-dimethyl-5,7-dihydropyrrolo[3,4-b]pyridin-6-yl)-[(3R)-1-(5-cyclopropyl-3-pyridyl)pyrrolidin-3-yl]methanone], the results for the EC50 at human M4 receptor [1] (Table 1) and at human M4 receptor [2] (Table 1) were 3640 nM and 816 nM, respectively.
On the same counts, the results for `COc1ncc(N2CC[C@@H](C(=O)N3Cc4nc(C)c(Cl)c(C)c4C3)C2)cn1` [Example 33, (3-chloro-2,4-dimethyl-5,7-dihydropyrrolo[3,4-b]pyridin-6-yl)-[(3R)-1-(2-methoxypyrimidin-5-yl)pyrrolidin-3-yl]methanone] are 242 nM and 2370 nM.
On the same counts, the results for `COc1ccc(N2CC[C@@H](C(=O)N3Cc4nc(C)c(Cl)c(C)c4C3)C2)cn1` [Example 10, (3-chloro-2,4-dimethyl-5,7-dihydropyrrolo[3,4-b]pyridin-6-yl)-[(3R)-1-(6-methoxy-3-pyridyl)pyrrolidin-3-yl]methanone] are 1010 nM and 1030 nM.
The matching figures for `Cc1nc2c(c(C)c1Cl)CN(C(=O)[C@@H]1CCN(c3ccnc(C(F)(F)F)n3)C1)C2` [Example 23, (3-chloro-2,4-dimethyl-5,7-dihydropyrrolo[3,4-b]pyridin-6-yl)-[(3R)-1-[2-(trifluoromethyl)pyrimidin-4-yl]pyrrolidin-3-yl]methanone]: 791 nM and 907 nM.
As to `COCc1nc2c(c(C)c1Cl)CN(C(=O)CC1CN(c3ccncn3)C1)C2` [Example P55, 1-[3-chloro-2-(methoxymethyl)-4-methyl-5,7-dihydropyrrolo[3,4-b]pyridin-6-yl]-2-(1-pyrimidin-4-ylazetidin-3-yl)ethanone, reference compound], the EC50 at human M4 receptor [2] (Table 2) came out at 50 nM. In addition, in the data set on liver cells, the Clearance was 5.1 μl/min/1 * 10^6 cells.
Consider `Cc1nc2c(c(C)c1Cl)CN(C(=O)[C@@H]1CCN(c3cncc(OC(F)F)c3)C1)C2` [Example 17, (3-chloro-2,4-dimethyl-5,7-dihydropyrrolo[3,4-b]pyridin-6-yl)-[(3R)-1-[5-(difluoromethoxy)-3-pyridyl]pyrrolidin-3-yl]methanone], for which the EC50 at human M4 receptor [1] (Table 1) worked out at 230 nM; on human M4 receptor [2] (Table 1), 240 nM.

What is called EC50 is the concentration that produces a half-maximal response.
